Read-outs that look alike come from different tables or passages of the source.
Tests used:
[1] = tested on: Beet Armyworm (Spodoptera exigua) ("BAW"); experiment: Bioassay on beet armyworm (BAW), 128-well diet tray assay; assay type: in vivo; settings: for mortality at 50 µg/cm2: 168 h, 50 μg/cm^2 on artificial diet, second instar BAW larvae, 25° C., five to seven days, average of eight wells, read-out: BAW % Control (or Mortality) rating; for pest or weed control at 50 µg/cm2: activity rating class, read-out: BAW (Biological Results, Insect species)
Procedure: (§1) Certain molecules disclosed in this document were tested against BAW and CEW using procedures described in the following examples. In the reporting of the results, the “BAW & CL Rating Table” was used (See Table Section). BIOASSAYS ON BAW
Bioassays on BAW were conducted using a 128-well diet tray assay. one to five second instar BAW larvae were placed in each well (3 mL) of the diet tray that had been previously filled with 1 mL of artificial diet to which 50 μg/cm^2 of the test compound (dissolved in 50 μL of 90:10 acetone-water mixture) had been applied (to each of eight wells) and then allowed to dry. Trays were covered with a clear self-adhesive cover and held at 25° C., 14:10 light-dark for five to seven days. Percent mortality was recorded for the larvae in each well; activity in the eight wells was then averaged. The results are indicated in the table entitled “Table ABC: Biological Results” (See Table Section).

[2] = tested on: Cabbage Looper (Trichoplusia ni) ("CL"); experiment: Bioassay on cabbage looper (CL), 128-well diet tray assay; assay type: in vivo; settings: for mortality at 50 µg/cm2: 168 h, 50 μg/cm^2 on artificial diet, second instar CL larvae, 25° C., five to seven days, average of eight wells, read-out: CL % Control (or Mortality) rating; for pest or weed control at 50 µg/cm2: activity rating class, read-out: CL (Biological Results, Insect species)
Procedure: as §1
Bioassays on CL were conducted using a 128-well diet tray assay. one to five second instar CL larvae were placed in each well (3 mL) of the diet tray that had been previously filled with 1 mL of artificial diet to which 50 μg/cm^2 of the test compound (dissolved in 50 μL of 90:10 acetone-water mixture) had been applied (to each of eight wells) and then allowed to dry. Trays were covered with a clear self-adhesive cover and held at 25° C., 14:10 light-dark for five to seven days. Percent mortality was recorded for the larvae in each well; activity in the eight wells was then averaged. The results are indicated in the table entitled “Table ABC: Biological Results” (See Table Section).

Molecule `CC(Cc1ccc(-c2ncn(-c3ccc(OC(F)(F)F)cc3)n2)cc1)NC(=O)NC(=S)Nc1ccccc1C(C)C` (stereo not drawn) [F4, N-[2-(propan-2-yl)phenyl]-N′-[1-(4-{1-[4-(trifluoromethoxy)phenyl]-1H-1,2,4-triazol-3-yl}phenyl)propan-2-yl]dicarbonimidothioic diamide] has a mortality at 50 µg/cm2 [1] of 50 to 100% and a mortality at 50 µg/cm2 [2] of 50 to 100%.
`CC(C)c1ccccc1NC(=S)NC(=O)NCc1ccc(-c2ncn(-c3ccc(OC(F)(F)C(F)(F)F)cc3)n2)cc1` [F15, N-(4-{1-[4-(pentafluoroethoxy)phenyl]-1H-1,2,4-triazol-3-yl}benzyl)-N′-[2-(propan-2-yl)phenyl]dicarbonimidothioic diamide] showed a mortality at 50 µg/cm2 [1] of 50 to 100% and a mortality at 50 µg/cm2 [2] of 50 to 100%.
For `Cc1ccc(C(C)C)c(NC(=S)NC(=O)NCc2ccc(-c3ncn(-c4ccc(OC(F)(F)C(F)(F)F)cc4)n3)cc2)c1` [F16], the mortality at 50 µg/cm2 [1] was 50 to 100% and the mortality at 50 µg/cm2 [2] was 50 to 100%.
With `CC(C)c1ccccc1N1C(=O)CS/C1=N\C(=O)NCc1ccc(-c2ncn(-c3ccc(OC(F)(F)F)cc3)n2)cc1` [F17, (Z)-1-(3-(2-isopropylphenyl)-4-oxothiazolidin-2-ylidene)-3-(4-(1-(4-(trifluoromethoxy)phenyl)-1H-1,2,4-triazol-3-yl)benzyl)urea] the mortality at 50 µg/cm2 [1] was 50 to 100% and the mortality at 50 µg/cm2 [2] was 50 to 100%.
Molecule `CC(C)c1ccccc1N1C(=O)CS/C1=N\C(=O)NCc1ccc(-c2ncn(-c3ccc(OC(F)(F)C(F)(F)F)cc3)n2)cc1` [F18, (Z)-1-(3-(2-isopropylphenyl)-4-oxothiazolidin-2-ylidene)-3-(4-(1-(4-(perfluoroethoxy)phenyl)-1H-1,2,4-triazol-3-yl)benzyl)urea] has a mortality at 50 µg/cm2 [1] of 50 to 100% and a mortality at 50 µg/cm2 [2] of 50 to 100%.
In the case of `Cc1ccc(C(C)C)c(N2C(=O)CS/C2=N\C(=O)NCc2ccc(-c3ncn(-c4ccc(OC(F)(F)C(F)(F)F)cc4)n3)cc2)c1` [F19, (Z)-1-(3-(2-isopropyl-5-methylphenyl)-4-oxothiazolidin-2-ylidene)-3-(4-(1-(4-(perfluoroethoxy)phenyl)-1H-1,2,4-triazol-3-yl)benzyl)urea], the mortality at 50 µg/cm2 [1] is reported as 50 to 100% and the mortality at 50 µg/cm2 [2] is reported as 50 to 100%.
Molecule `COc1ccc(NC(=S)NC(=O)NC2CC2c2ccc(-c3ncn(-c4ccc(OC(F)(F)F)cc4)n3)cc2)c(C)c1` (stereo not drawn) [F26] has a mortality at 50 µg/cm2 [1] of 50 to 100% and a mortality at 50 µg/cm2 [2] of 50 to 100%.
In the case of `Cc1ccc(C(C)C)c(NC(=S)NC(=O)NCc2ccc(-c3ncn(-c4ccc(OC(F)(F)F)cc4)n3)cc2)c1` [F35], the mortality at 50 µg/cm2 [1] is reported as 50 to 100%.
For `Cc1ccc(C(C)C)c(NC(=S)NC(=O)NCCc2ccc(-c3ncn(-c4ccc(OC(F)(F)F)cc4)n3)cc2C)c1` [FB1, 1-[(2-isopropyl-5-methyl-phenyl)carbamothioyl]-3-[2-[2-methyl-4-[1-[4-(trifluoromethoxy)phenyl]-1H-1,2,4-triazol-3-yl]phenyl]ethyl]urea], the pest or weed control at 50 µg/cm2 ([1]; Table ABC (FB)) was 50 to 100% and the pest or weed control at 50 µg/cm2 ([2]; Table ABC (FB)) was 50 to 100%.
With `COc1ccc(C(C)C)c(NC(=S)NC(=O)NCCc2ccc(-c3ncn(-c4ccc(OC(F)(F)F)cc4)n3)cc2C)c1` [FB2] the pest or weed control at 50 µg/cm2 ([1]; Table ABC (FB)) was 50 to 100% and the pest or weed control at 50 µg/cm2 ([2]; Table ABC (FB)) was 50 to 100%.
Work on `Cc1ccc(C(C)C)c(N2C(=O)CS/C2=N\C(=O)NCCc2ccc(-c3ncn(-c4ccc(OC(F)(F)F)cc4)n3)cc2C)c1` [FB3, (Z)-1-(3-(2-isopropyl-5-methylphenyl)-4-oxothiazolidin-2-ylidene)-3-(2-methyl-4-(1-(4-(trifluoromethoxy)phenyl)-1H-1,2,4-triazol-3-yl)phenethyl)urea] yielded a pest or weed control at 50 µg/cm2 ([1]; Table ABC (FB)) of 50 to 100% and a pest or weed control at 50 µg/cm2 ([2]; Table ABC (FB)) of 50 to 100%.
`COc1ccc(C(C)C)c(N2C(=O)CS/C2=N\C(=O)NCCc2ccc(-c3ncn(-c4ccc(OC(F)(F)F)cc4)n3)cc2C)c1` [FB4, (Z)-1-(3-(2-isopropyl-5-methoxyphenyl)-4-oxothiazolidin-2-ylidene)-3-(2-methyl-4-(1-(4-(trifluoromethoxy)phenyl)-1H-1,2,4-triazol-3-yl)phenethyl)urea] showed a pest or weed control at 50 µg/cm2 ([1]; Table ABC (FB)) of 50 to 100% and a pest or weed control at 50 µg/cm2 ([2]; Table ABC (FB)) of 50 to 100%.
With `Cc1ccc(NC(=S)NC(=O)NCCCCc2ccc(-c3ncn(-c4ccc(OC(F)(F)F)cc4)n3)cc2)c(C)c1` [FB16, 1-[(2,4-dimethylphenyl)carbamothioyl]-3-[4-[4-[1-[4-(trifluoromethoxy)phenyl]-1H-1,2,4-triazol-3-yl]phenyl]butyl]urea] the pest or weed control at 50 µg/cm2 ([2]; Table ABC (FB)) was 50 to 100%.
`Cc1ccc(-n2c(C)cs/c2=N\C(=O)NCc2ccc(-c3ncn(-c4ccc(OC(F)(F)F)cc4)n3)cc2)c(C(C)C)c1` [P20, (Z)-1-(3-(2-isopropyl-4-methylphenyl)-4-methylthiazol-2(3H)-ylidene)-3-(4-(1-(4-(trifluoromethoxy)phenyl)-1H-1,2,4-triazol-3-yl)benzyl)urea] gave a mortality at 50 µg/cm2 [2] of 50 to 100%.
Molecule `Cc1ccc(C(C)C)c(N2C(=O)CS/C2=N\C(=O)NCCc2cccc(-c3ncn(-c4ccc(OC(F)(F)F)cc4)n3)c2)c1` [P81] has a mortality at 50 µg/cm2 [2] of 50 to 100%.
In the case of `COc1ccc(NC(=S)NC(=O)NCCc2cccc(-c3ncn(-c4ccc(OC(F)(F)F)cc4)n3)c2)c(C)c1` [PC87, 1-[(4-methoxy-2-methyl-phenyl)carbamothioyl]-3-[2-[3-[1-[4-(trifluoromethoxy)phenyl]-1H-1,2,4-triazol-3-yl]phenyl]ethyl]urea], the pest or weed control at 50 µg/cm2 ([2]; Table ABC (PC)) is reported as 50 to 100%.
`CCCc1ccc(C)cc1NC(=S)NC(=O)NCCCc1ccc(-c2ncn(-c3ccc(OC(F)(F)F)cc3)n2)cc1` [PC99, 1-[(5-methyl-2-propyl-phenyl)carbamothioyl]-3-[3-[4-[1-[4-(trifluoromethoxy)phenyl]-1H-1,2,4-triazol-3-yl]phenyl]propyl]urea] showed a pest or weed control at 50 µg/cm2 ([1]; Table ABC (PC)) of 50 to 100%.
With `Cc1ccc(NC(=S)NC(=O)NCCCc2ccc(-c3ncn(-c4ccc(OC(F)(F)F)cc4)n3)cc2)c(C(C)C)c1` [PC102, 1-[(2-isopropyl-4-methyl-phenyl)carbamothioyl]-3-[3-[4-[1-[4-(trifluoromethoxy)phenyl]-1H-1,2,4-triazol-3-yl]phenyl]propyl]urea] the pest or weed control at 50 µg/cm2 ([1]; Table ABC (PC)) was 50 to 100%.
In the case of `CC(C)c1cc(F)ccc1NC(=S)NC(=O)NCCCc1ccc(-c2ncn(-c3ccc(OC(F)(F)F)cc3)n2)cc1` [PC103, 1-[(4-fluoro-2-isopropyl-phenyl)carbamothioyl]-3-[3-[4-[1-[4-(trifluoromethoxy)phenyl]-1H-1,2,4-triazol-3-yl]phenyl]propyl]urea], the pest or weed control at 50 µg/cm2 ([1]; Table ABC (PC)) is reported as 0 to 50%.
`Cc1ccc(NC(=S)NC(=O)NCCCCc2cccc(-c3ncn(-c4ccc(OC(F)(F)F)cc4)n3)c2)c(C(C)C)c1` [PC180, 1-[(2-isopropyl-4-methyl-phenyl)carbamothioyl]-3-[4-[3-[1-[4-(trifluoromethoxy)phenyl]-1H-1,2,4-triazol-3-yl]phenyl]butyl]urea] showed a pest or weed control at 50 µg/cm2 ([1]; Table ABC (PC)) of 0 to 50%.
Molecule `CC(C)c1cc(F)ccc1NC(=S)NC(=O)NCCCCc1cccc(-c2ncn(-c3ccc(OC(F)(F)F)cc3)n2)c1` [PC181, 1-[(4-fluoro-2-isopropyl-phenyl)carbamothioyl]-3-[4-[3-[1-[4-(trifluoromethoxy)phenyl]-1H-1,2,4-triazol-3-yl]phenyl]butyl]urea] has a pest or weed control at 50 µg/cm2 ([1]; Table ABC (PC)) of 0 to 50%.
`COc1ccc(C(C)C)c(NC(=S)NC(=O)NCCCCc2cccc(-c3ncn(-c4ccc(OC(F)(F)F)cc4)n3)c2)c1` [PC182, 1-[(2-isopropyl-5-methoxy-phenyl)carbamothioyl]-3-[4-[3-[1-[4-(trifluoromethoxy)phenyl]-1H-1,2,4-triazol-3-yl]phenyl]butyl]urea] gave a pest or weed control at 50 µg/cm2 ([2]; Table ABC (PC)) of 50 to 100%.

— patent US9783532B2, “Molecules having certain pesticidal utilities, and intermediates, compositions, and processes related thereto” (Dow AgroSciences LLC, priority 2013, dated 2017)
